According to paper PMC6351562, “Structure, function, and inhibition of drug reactivating human gut microbial β-glucuronidases” (Scientific Reports, 2019):

Key:
[1] = system: GUS activity in faecal extracts; assay: pNPG processing assay in faecal extracts of DCF-treated mice; conditions: single dose DCF 60 mg/kg intraperitoneal, faeces 12 hours after, 1 mM pNPG, pH 7.4
[2] = target: E. coli GUS (EcGUS) (Escherichia coli, UniProt P05804); conditions: pNPG as substrate; optimal pH 7.4; cited from earlier work
[3] = system: BdGUS (−)CBM Loop mutant; assay: pNPG processing by BdGUS (−)CBM Loop mutant; conditions: deletion of CBM loop of BdGUS; Fig. S13a
[4] = target: T1, Lactobacillus rhamnosus GUS (LrGUS) (Lacticaseibacillus rhamnosus, UniProt A0A2A5L2J1); conditions: pNPG as substrate; optimal pH 4.5; 37 °C
T1 sequence (A0A2A5L2J1 1-603): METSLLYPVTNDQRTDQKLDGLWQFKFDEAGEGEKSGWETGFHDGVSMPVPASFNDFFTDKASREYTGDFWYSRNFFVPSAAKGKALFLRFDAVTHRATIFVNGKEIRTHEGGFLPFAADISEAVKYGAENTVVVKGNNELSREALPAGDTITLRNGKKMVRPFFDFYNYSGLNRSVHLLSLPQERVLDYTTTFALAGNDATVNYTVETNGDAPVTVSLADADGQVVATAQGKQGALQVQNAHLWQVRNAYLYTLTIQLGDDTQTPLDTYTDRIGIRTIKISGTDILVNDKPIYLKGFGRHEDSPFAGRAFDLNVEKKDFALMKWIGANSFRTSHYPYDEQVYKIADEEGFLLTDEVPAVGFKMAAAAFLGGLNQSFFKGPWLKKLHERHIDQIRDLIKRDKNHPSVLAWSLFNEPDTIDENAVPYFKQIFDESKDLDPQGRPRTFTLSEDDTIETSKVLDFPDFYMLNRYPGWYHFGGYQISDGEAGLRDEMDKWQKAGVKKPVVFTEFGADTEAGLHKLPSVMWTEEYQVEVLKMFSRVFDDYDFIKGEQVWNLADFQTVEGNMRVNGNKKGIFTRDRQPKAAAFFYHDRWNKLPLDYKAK

[5] = target: T2, Faecalibacterium prausnitzii GUS (FpGUS) (Faecalibacterium duncaniae, UniProt C7H4D2); conditions: pNPG as substrate; optimal pH 6.0; 37 °C
T2 sequence (C7H4D2 1-608): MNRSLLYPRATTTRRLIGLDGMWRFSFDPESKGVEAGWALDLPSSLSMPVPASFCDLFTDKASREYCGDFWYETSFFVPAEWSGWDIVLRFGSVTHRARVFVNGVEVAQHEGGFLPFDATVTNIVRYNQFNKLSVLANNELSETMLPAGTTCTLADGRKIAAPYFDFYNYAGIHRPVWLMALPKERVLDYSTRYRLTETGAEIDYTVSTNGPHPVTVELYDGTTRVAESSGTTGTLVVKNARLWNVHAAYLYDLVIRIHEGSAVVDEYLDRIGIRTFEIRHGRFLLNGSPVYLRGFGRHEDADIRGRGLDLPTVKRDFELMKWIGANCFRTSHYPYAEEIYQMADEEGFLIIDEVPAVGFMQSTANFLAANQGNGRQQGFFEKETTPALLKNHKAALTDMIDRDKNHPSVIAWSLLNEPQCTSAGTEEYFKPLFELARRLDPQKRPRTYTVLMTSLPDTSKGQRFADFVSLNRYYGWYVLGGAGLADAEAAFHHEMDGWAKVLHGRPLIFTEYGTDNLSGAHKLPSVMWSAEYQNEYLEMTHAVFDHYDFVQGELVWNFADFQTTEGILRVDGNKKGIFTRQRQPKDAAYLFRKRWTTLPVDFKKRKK

[6] = target: T3, Ruminococcus gnavus GUS (RgGUS) (Mediterraneibacter gnavus, UniProt A0A2N5PVZ8); assay type: biochemical; conditions: pNPG as substrate; optimal pH 6.5; apparent value estimated at low pNPG concentrations
T3 sequence (A0A2N5PVZ8 1-603): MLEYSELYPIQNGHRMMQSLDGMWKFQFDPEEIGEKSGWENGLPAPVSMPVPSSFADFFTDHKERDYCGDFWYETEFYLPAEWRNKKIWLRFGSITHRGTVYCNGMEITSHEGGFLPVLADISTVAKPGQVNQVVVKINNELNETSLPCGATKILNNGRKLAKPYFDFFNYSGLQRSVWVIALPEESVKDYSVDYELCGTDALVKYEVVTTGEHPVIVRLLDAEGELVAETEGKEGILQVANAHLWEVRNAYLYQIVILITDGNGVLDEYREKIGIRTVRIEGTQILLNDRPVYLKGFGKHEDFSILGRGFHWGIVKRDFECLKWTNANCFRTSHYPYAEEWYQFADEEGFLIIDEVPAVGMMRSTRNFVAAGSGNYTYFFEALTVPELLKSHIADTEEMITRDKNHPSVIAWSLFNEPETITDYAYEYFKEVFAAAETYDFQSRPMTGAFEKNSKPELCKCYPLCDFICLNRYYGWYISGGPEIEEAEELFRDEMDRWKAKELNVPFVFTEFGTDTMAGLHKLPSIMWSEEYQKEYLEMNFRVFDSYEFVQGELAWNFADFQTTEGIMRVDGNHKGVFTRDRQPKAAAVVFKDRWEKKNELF

[7] = system: EeGUS (−)EeLoop mutant; assay: pNPG processing by EeGUS (−)EeLoop mutant; conditions: deletion of residues M149 to A159 (Ee Extra Loop); Fig. S13c
[8] = target: Clostridium perfringens GUS (CpGUS) (Clostridium perfringens, UniProt Q8VNV4); conditions: pH 6.5

Chain of E. coli GUS (EcGUS) (P05804 whole entry): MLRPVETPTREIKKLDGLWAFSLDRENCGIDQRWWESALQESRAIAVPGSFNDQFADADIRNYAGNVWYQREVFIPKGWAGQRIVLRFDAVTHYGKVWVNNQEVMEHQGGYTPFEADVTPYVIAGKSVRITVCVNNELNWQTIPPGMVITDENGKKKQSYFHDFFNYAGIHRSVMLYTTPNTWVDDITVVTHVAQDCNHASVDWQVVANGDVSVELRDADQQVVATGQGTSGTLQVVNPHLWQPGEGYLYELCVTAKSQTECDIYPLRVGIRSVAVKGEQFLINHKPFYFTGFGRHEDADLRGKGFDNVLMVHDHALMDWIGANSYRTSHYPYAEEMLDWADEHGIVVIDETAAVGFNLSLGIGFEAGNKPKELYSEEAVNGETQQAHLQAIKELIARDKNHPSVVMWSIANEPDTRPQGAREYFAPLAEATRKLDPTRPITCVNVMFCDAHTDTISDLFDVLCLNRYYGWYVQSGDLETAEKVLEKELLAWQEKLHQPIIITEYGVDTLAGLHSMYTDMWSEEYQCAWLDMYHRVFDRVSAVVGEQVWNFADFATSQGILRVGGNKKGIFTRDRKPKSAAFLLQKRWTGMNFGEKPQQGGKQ

Structure (SMILES)	GUS activity (pNPG processing) in faecal extracts compared to pre-treatment levels [1]	Km [2]	kcat (s^−1) [2]	activity of mutant with pNPG (in words) [3]	kcat [4]	kcat [5]	kcat [6]	pNPG cleavage rate of mutant relative to WT [7]	kcat [8]
O=C(O)Cc1ccccc1Nc1c(Cl)cccc1Cl [DCF, diclofenac]	increases GUS activity								
O=C(O)[C@H]1O[C@@H](Oc2ccc([N+](=O)[O-])cc2)[C@H](O)[C@@H](O)[C@@H]1O [pNPG, p-nitrophenol-β-D-glucuronide]		130 ± 10 µM	120 ± 10^a s^−1	inactive	10.0 s⁻¹	58 s⁻¹	2.8 s⁻¹	9%	57 s⁻¹
